The values that follow come from US20240099989A1, “AGENT FOR PREVENTING OR IMPROVING PERIPHERAL NEUROPATHY” (KINKI UNIVERSITY, priority 2021, published 2024).

Read-outs that look alike come from different tables or passages of the source.

This experiment has as its system Peripheral Neuropathy in a Mouse Caused by Vincristine. Format: in vivo, Balb/c mice. From the text: Six to seven-week-old female Balb/c mice were used for the tests. All the mice were acclimated for seven days after arrival. Then, the mice were grouped into the following four groups: a control group, a group receiving vincristine, a group receiving xylitol, and a group receiving vincristine and xylitol (a group receiving vincristine+xylitol). Each group consisted of five mice.
On Day 8 of acclimation, the mice in the group receiving vincristine and the group receiving vincristine+xylitol were intraperitoneally administered with vincristine at a dose of 0.2 mg/kg. This day was designated as Day 0 of administration. Thereafter, these mice were intraperitoneally administered with vincristine at a daily dose of 0.2 mg/kg on Day 7 and Day 14.
The mice in the group receiving xylitol and the group receiving vincristine+xylitol were orally administered with xylitol at a dose of 5 mg/kg daily from Day 0.
A cold plate test was performed to examine the effect of xylitol on paresthesia that is caused by a low temperature stimulus. The mice in the four groups described in (7) of the present example (Example 1) were placed on a cold plate set at 10° C., and withdrawal response time (latent time) was measured. It is presumed that a shorter latent time reflects a greater degree of shunning the low temperature stimulus by the cold plate.
Six to seven-week-old female Balb/c mice were used for the tests as with Example 1. All the mice were acclimated for seven days after arrival. Then, the mice were grouped into the following four groups: a control group, a group receiving vincristine, a group receiving xylitol, and a group receiving vincristine and xylitol (a group receiving vincristine+xylitol). Each group consisted of five mice.
On Day 8 of acclimation, the mice in the group receiving vincristine and the group receiving vincristine+xylitol were intraperitoneally administered with vincristine at a dose of 0.2 mg/kg. This day was designated as the first day of the administration (Day 0). Thereafter, these mice were intraperitoneally administered with vincristine at the same dose on Day 7 and Day 14 for a total of 3 doses.
The mice in the group receiving 100 mg/kg xylitol were orally administered with xylitol at a dose of 100 mg/kg daily from Day 0. The mice in the group receiving vincristine+100 mg/kg xylitol were orally administered with xylitol at a dose of 100 mg/kg daily from Day 6 of administration.
A test was performed on the mice in the four groups described in (9) of the present example (Example 2) to examine the effect of xylitol on paresthesia that is caused by a low temperature stimulus. The mice in respective groups were placed on a cold plate set at 10° C., and withdrawal response time (latent time) was measured. It is presumed that a shorter latent time reflects a greater degree of shunning the low temperature stimulus by the cold plate.
Six to seven-week-old female Balb/c mice were used for the tests as with Example 1. All the mice were acclimated for seven days after arrival. Then, the mice were grouped into the following four groups: a control group, a group receiving vincristine, a group receiving D-threitol, and a group receiving vincristine and D-threitol (a group receiving vincristine+D-threitol). Each group consisted of five mice.
On Day 8 of acclimation, the mice in the group receiving vincristine and the group receiving vincristine+D-threitol were intraperitoneally administered with vincristine at a dose of 0.2 mg/kg. This day was designated as Day 0 of administration. Thereafter, these mice were intraperitoneally administered with vincristine at a daily dose of 0.2 mg/kg on Day 7 and Day 14.
The mice in the group receiving D-threitol and the group receiving vincristine+D-threitol were orally administered with D-threitol at a dose of 5 mg/kg daily from Day 0.
A cold plate test was performed to examine the effect of D-threitol on paresthesia that is caused by a low temperature stimulus. […]

[1] abbreviates: 0.2 mg/kg vincristine + 5 mg/kg test substance orally daily from Day 0 (prevention).
Where [2] appears, read: 0.2 mg/kg vincristine + 100 mg/kg orally daily from Day 6, on Day 12, vs group receiving 0.2 mg/kg vincristine.

On to `OC[C@@H](O)[C@H](O)CO` [D-threitol], for which the “withdrawal response time (latent time)” value under setting [1] is given as “approximately similar to that of the control group”; the “withdrawal response time (latent time)” value (0.2 mg/kg vincristine + 100 mg/kg orally daily from Day 6 (therapy), time course after Day 6) is reported as “significantly longer withdrawal response time”; the “withdrawal response time (latent time)” value under setting [2] is “significantly longer withdrawal response time”.
With `OC[C@H](O)[C@H](O)[C@H](O)[C@@H](O)CO` [L-talitol], the “withdrawal response time (latent time)” value by setting is: under setting [1], “approximately similar to that of the control group”; under setting [2], “significantly longer withdrawal response time”.
As to `OC[C@@H](O)[C@H](O)[C@@H](O)CO` [xylitol], the “withdrawal response time (latent time)” value by setting is: under setting [1], “approximately similar to that of the control group”; under setting [2], “significantly longer withdrawal response time”.
